The record followed here is patent US20250295762A1, “COMPOSITE BIOACTIVE COMPOSITIONS AND APPLICATIONS THEREOF” (THE UNIVERSITY OF NORTH CAROLINA AT CHAPEL HILL, priority 2022, published 2025).

This assay deals with 3T3 fibroblasts. Briefly: Cell viability by MTT assay in fibroblasts. The format is cell-based. To be noted: 24 h; for IC50: Fibroblast, read-out: 50% Inhibitory Concentration (IC50). From the text:
All cell lines (RAW 264.7 murine macrophages, DC2.4 dendritic cells, and 3T3 fibroblasts; ATCC, Manassas, VA) were maintained according to ATCC guidelines. B3Z T cells were obtained from Dr. Nilabh Shastri (Johns Hopkins) and maintained and used as previously outlined. See, Broaders, K. E.; Cohen, J. A.; Beaudette, T. T.; Bachelder, E. M.; Frechet, J. M., Acetalated dextran is a chemically and biologically tunable material for particulate immunotherapy. Proc Natl Acad Sci USA 2009, 106 (14), 5497-502. Cell viability was determined with an MTT assay, as previously described. See, Chen, N.; Collier, M. A.; Gallovic, M. D.; Collins, G. C.; Sanchez, C. C.; Fernandes, E. Q.; Bachelder, E. M.; Ainslie, K. M., Degradation of acetalated dextran can be broadly tuned based on cyclic acetal coverage and molecular weight. Int J Pharm 2016, 512 (1), 147-157.
A general note: Tetrazolium assays rely on reduction of a dye to a coloured formazan, in cell work by metabolically active cells.

In brackets after ≈: the same amount, converted by molar mass.

In the case of `Cc1ncc[nH]1` [2-methylimidazole], the IC50 was about 1000 µg/mL (≈ 12.2 mM).
The same measure, in the same setting: as for `NCCC(=O)N[C@@H](Cc1cnc[nH]1)C(=O)O` [L-carnosine], the figure is over 1000 µg/mL.
With `CC(=O)[O-].CC(=O)[O-].[Zn+2]` [zinc acetate dihydrate], the “50% Inhibitory Concentration (IC50)” value came out at 16.0 ± 1.0 µg/mL.
Still for that read-out and setting: then `O.O.O.O.O.O.O=[N+]([O-])[O-].O=[N+]([O-])[O-].[Zn+2]` [zinc nitrate hexahydrate], with 25.8 ± 2.1 µg/mL.
